Measured values published in ChEMBL document CHEMBL3885881, “DrugMatrix”.

Species on record: Rattus norvegicus
Assay: DrugMatrix - Regimen: Daily Repeat
Assay type: toxicity, organism-based, Sprague-Dawley
Design: regimen Daily Repeat, gender Male, age 6-8 weeks
Conditions: in vivo, po, route oral GAVAGE, vehicle .5 % CMC; for ABSOLUTE BASOPHIL / ABSOLUTE EOSINOPHIL / ABSOLUTE LYMPHOCYTE / ABSOLUTE MONOCYTE / ABSOLUTE SEGMENTED NEUTROPHIL / BASOPHIL / EOSINOPHIL / ERYTHROCYTE COUNT / HEMATOCRIT / HEMOGLOBIN / LEUKOCYTE COUNT / LYMPHOCYTE / MEAN CORPUSCULAR HEMOGLOBIN / MEAN CORPUSCULAR HEMOGLOBIN CONCENTRATION / MEAN CORPUSCULAR VOLUME / MONOCYTE / NEUTROPHIL / NUCLEATED RED BLOOD CELLS / PLATELET COUNT: tissue Blood; for ALANINE AMINOTRANSFERASE / ALBUMIN / ALKALINE PHOSPHATASE / ASPARTATE AMINOTRANSFERASE / BLOOD UREA NITROGEN / CARBON DIOXIDE / CHLORIDE / CHOLESTEROL / CREATINE PHOSPHOKINASE / CREATININE / GLUCOSE / LACTATE DEHYDROGENASE / LIPASE / PHOSPHORUS / POTASSIUM / SODIUM / TOTAL BILIRUBIN / TOTAL PROTEIN / URIC ACID: tissue Plasma
[1] = 0 mg/kg, 72 h, dose level Control, time 3 day
[2] = 0 mg/kg, 120 h, dose level Control, time 5 day
[3] = 100 mg/kg, 72 h, dose level Low, time 3 day

Compound: NC(=O)CN1CCCC1=O
- ABSOLUTE BASOPHIL [1]: 0 CELLS/uL
- ABSOLUTE EOSINOPHIL [1]: 0 CELLS/uL
- ABSOLUTE LYMPHOCYTE [1]: 12191.17 CELLS/uL
- ABSOLUTE MONOCYTE [1]: 183.17 CELLS/uL
- ABSOLUTE SEGMENTED NEUTROPHIL [1]: 1192.33 CELLS/uL
- BASOPHIL [1]: 0%
- EOSINOPHIL [1]: 0%
- ERYTHROCYTE COUNT [1]: 5.51 x10E6/uL
- HEMATOCRIT [1]: 35.45%
- HEMOGLOBIN [1]: 13.82 G/DL
- LEUKOCYTE COUNT [1]: 13.57 x10E3/uL
- LYMPHOCYTE [1]: 89.83%
- MEAN CORPUSCULAR HEMOGLOBIN [1]: 25.1 pg
- MEAN CORPUSCULAR HEMOGLOBIN CONCENTRATION [1]: 38.98 G/DL
- MEAN CORPUSCULAR VOLUME [1]: 64.42 fL
- MONOCYTE [1]: 1.33%
- NEUTROPHIL [1]: 8.83%
- NUCLEATED RED BLOOD CELLS [1]: 0 /100WBC
- PLATELET COUNT [1]: 1118.17 x10E3/uL
- ALANINE AMINOTRANSFERASE [1]: 55 u/L
- ALBUMIN [1]: 4.15 G/DL
- ALKALINE PHOSPHATASE [1]: 449.5 u/L
- ASPARTATE AMINOTRANSFERASE [1]: 112.83 u/L
- BLOOD UREA NITROGEN [1]: 17.33 mg/dL
- CARBON DIOXIDE [1]: 29.5 mmol/L
- CHLORIDE [1]: 101 MEQ/L
- CHOLESTEROL [1]: 70 mg/dL
- CREATINE PHOSPHOKINASE [1]: 1325.83 u/L
- CREATININE [1]: 0.18 mg/dL
- GLUCOSE [1]: 171.5 mg/dL
- LACTATE DEHYDROGENASE [1]: 386 u/L
- LIPASE [1]: 10 u/L
- PHOSPHORUS [1]: 11.57 mg/dL
- POTASSIUM [1]: 6.21 MEQ/L
- SODIUM [1]: 141.65 MEQ/L
- TOTAL BILIRUBIN [1]: 0.15 mg/dL
- TOTAL PROTEIN [1]: 5.75 G/DL
- URIC ACID [1]: 1.28 mg/dL
- ABSOLUTE BASOPHIL [2]: 0 CELLS/uL
- ABSOLUTE EOSINOPHIL [2]: 138.17 CELLS/uL
- ABSOLUTE LYMPHOCYTE [2]: 13283.17 CELLS/uL
- ABSOLUTE MONOCYTE [2]: 303.83 CELLS/uL
- ABSOLUTE SEGMENTED NEUTROPHIL [2]: 1308.17 CELLS/uL
- BASOPHIL [2]: 0%
- EOSINOPHIL [2]: 1%
- ERYTHROCYTE COUNT [2]: 5.32 x10E6/uL
- HEMATOCRIT [2]: 33.8%
- HEMOGLOBIN [2]: 13.63 G/DL
- LEUKOCYTE COUNT [2]: 15.03 x10E3/uL
- LYMPHOCYTE [2]: 88.33%
- MEAN CORPUSCULAR HEMOGLOBIN [2]: 25.68 pg
- MEAN CORPUSCULAR HEMOGLOBIN CONCENTRATION [2]: 40.35 G/DL
- MEAN CORPUSCULAR VOLUME [2]: 63.67 fL
- MONOCYTE [2]: 1.83%
- NEUTROPHIL [2]: 8.83%
- NUCLEATED RED BLOOD CELLS [2]: 0 /100WBC
- PLATELET COUNT [2]: 1097.5 x10E3/uL
- ALANINE AMINOTRANSFERASE [2]: 54.5 u/L
- ALBUMIN [2]: 4.27 G/DL
- ALKALINE PHOSPHATASE [2]: 337 u/L
- ASPARTATE AMINOTRANSFERASE [2]: 94.67 u/L
- BLOOD UREA NITROGEN [2]: 17 mg/dL
- CARBON DIOXIDE [2]: 28.33 mmol/L
- CHLORIDE [2]: 101.5 MEQ/L
- CHOLESTEROL [2]: 71.33 mg/dL
- CREATINE PHOSPHOKINASE [2]: 628.17 u/L
- CREATININE [2]: 0.19 mg/dL
- GLUCOSE [2]: 177.83 mg/dL
- LACTATE DEHYDROGENASE [2]: 500.5 u/L
- LIPASE [2]: 9.5 u/L
- PHOSPHORUS [2]: 12.3 mg/dL
- POTASSIUM [2]: 5.63 MEQ/L
- SODIUM [2]: 143.03 MEQ/L
- TOTAL BILIRUBIN [2]: 0.2 mg/dL
- TOTAL PROTEIN [2]: 6.02 G/DL
- URIC ACID [2]: 1.5 mg/dL
- ABSOLUTE BASOPHIL [3]: 0 CELLS/uL
- ABSOLUTE EOSINOPHIL [3]: 0 CELLS/uL
- ABSOLUTE LYMPHOCYTE [3]: 10885.67 CELLS/uL
- ABSOLUTE MONOCYTE [3]: 0 CELLS/uL
- ABSOLUTE SEGMENTED NEUTROPHIL [3]: 981 CELLS/uL
- BASOPHIL [3]: 0%
- EOSINOPHIL [3]: 0%
- ERYTHROCYTE COUNT [3]: 5.15 x10E6/uL
- HEMATOCRIT [3]: 32.9%
- HEMOGLOBIN [3]: 13.47 G/DL
- LEUKOCYTE COUNT [3]: 11.87 x10E3/uL
- LYMPHOCYTE [3]: 92%
- MEAN CORPUSCULAR HEMOGLOBIN [3]: 26.17 pg
- MEAN CORPUSCULAR HEMOGLOBIN CONCENTRATION [3]: 40.97 G/DL
- MEAN CORPUSCULAR VOLUME [3]: 63.87 fL
- MONOCYTE [3]: 0%
- NEUTROPHIL [3]: 8%
- NUCLEATED RED BLOOD CELLS [3]: 0 /100WBC
- PLATELET COUNT [3]: 1222.67 x10E3/uL
- ALANINE AMINOTRANSFERASE [3]: 51.33 u/L
- ALBUMIN [3]: 4.07 G/DL
- ALKALINE PHOSPHATASE [3]: 403 u/L
- ASPARTATE AMINOTRANSFERASE [3]: 87.67 u/L
- BLOOD UREA NITROGEN [3]: 15 mg/dL
- CARBON DIOXIDE [3]: 25 mmol/L
- CHLORIDE [3]: 102.33 MEQ/L
- CHOLESTEROL [3]: 61 mg/dL
- CREATINE PHOSPHOKINASE [3]: 556.33 u/L
- CREATININE [3]: 0.2 mg/dL
- GLUCOSE [3]: 204.67 mg/dL
- LACTATE DEHYDROGENASE [3]: 170.67 u/L
- LIPASE [3]: 10 u/L
- PHOSPHORUS [3]: 13.13 mg/dL
- POTASSIUM [3]: 5.4 MEQ/L
- SODIUM [3]: 143.3 MEQ/L
- TOTAL BILIRUBIN [3]: 0.1 mg/dL
- TOTAL PROTEIN [3]: 5.5 G/DL
- URIC ACID [3]: 1.8 mg/dL
